Each structure is given as a SMILES string. Several values for one entry are separate records, joined by “and”; a condition that tells them apart may be missing. Identical values can stand only once.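 Growth conditions: 96-well plates. Treatment: test compound, 48 hours, 5 concentrations. Analysis: linear interpolation between bracketing concentrations; unreached endpoints set to highest concentration. GI50: concentration for 50% inhibition of growth. TGI: concentration producing complete growth inhibition.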

The first assay deals with 786-0 renal. Nature of the assay: inhibition of tumour cell growth, NCI panel, 48 h.
Turning to `NC(=O)c1cc(S(=O)(=O)Nc2nnc(-c3ccccc3)c(-c3ccccc3)n2)c(SCc2ccccc2)cc1Cl`, the GI50 is above 100 µM and the TGI is above 100 µM.

As for `Cc1cc(C)c(/C=C2\C(=O)Nc3ccc(NC(=O)CCCCCCC(=O)NO)cc32)[nH]1`, the GI50 was 15.1 µM and the TGI is above 100 µM.

As to `COc1ccc(-c2coc3c4c(ccc3c2=O)OCO4)cc1OC`, the TGI was above 100 µM.

Consider `CC(C)(S)C(N)C(=O)O` (configuration not stated), for which the GI50 is above 5000 µM and the TGI was above 5000 µM.

For the compound `CN1C(=O)/C(=C/c2c(Cl)n(C)c3ccccc23)c2ccccc21`, the GI50 is 3.09 µM.

Consider `Cc1nc(-[n+]2nc(-c3ccncc3)nn2-c2ccccc2)sc1C`, for which the TGI is above 100 µM.

As for `CCOC(=O)/C=C(/C)Sc1cc(O)c2ccccc2c1O`, the GI50 is 15.2 µM and the TGI was 28.6 µM.

Take `N=C(N)c1ccc2nc(-c3cc(CC(=O)N[C@@H](CC(=O)O)C(=O)O)cc(-c4cc(S(N)(=O)=O)ccc4O)c3O)[nH]c2c1`: the GI50 was above 100 µM and the TGI is above 100 µM.

Regarding `COc1ccc(O)c(C(=O)c2ccc(C(=O)N[C@H]3CCCNC[C@@H]3NC(=O)c3ccncc3)cc2)c1F`, the GI50 is 3.07 µM and the TGI is above 20.2 µM.

With `COc1ccc(-n2c(C)cc(-c3ccccc3)c2C)cc1`, the GI50 is 1.94 µM and the TGI was determined as 4.85 µM.

`O[C@H](c1cc(C(F)(F)F)nc2c(C(F)(F)F)cccc12)[C@@H]1CCCCN1`: the GI50 was 4.68 µM and the TGI was 12.5 µM.

With `CCCOc1ccc2sc(NC(=O)OC)nc2c1`, the GI50 is above 28.2 µM and the TGI was above 100 µM.

As to `O=C(O)c1ccc(OCc2ccccc2)c(Cl)c1`, the TGI is above 100 µM.

As to `OCCCNc1nccc(-c2c(-c3ccc(F)cc3)nn3cc(C(F)(F)F)ccc23)n1`, the GI50 was 10.2 µM and the TGI is above 25 µM.

Regarding `O=S(=O)(Nc1ccc(F)cc1F)c1ccc(-c2cnc(C3CC3)o2)cc1`, the GI50 was 0.906 µM and the TGI was found to be 63 µM.

Take `O=C(CSC1CCc2ccccc21)N/N=C/c1ccccc1O` (configuration not stated): the GI50 was 6.87 µM and the TGI was above 100 µM.

The next assay concerns BT-549 breast. Put plainly: inhibition of tumour cell growth, NCI panel, 48 h.
In the case of `NC(=O)c1cc(S(=O)(=O)Nc2nnc(-c3ccccc3)c(-c3ccccc3)n2)c(SCc2ccccc2)cc1Cl`, the GI50 was above 53.1 µM and the TGI was above 89.7 µM.

Consider `Cc1cc(C)c(/C=C2\C(=O)Nc3ccc(NC(=O)CCCCCCC(=O)NO)cc32)[nH]1`, for which the GI50 was 4.43 µM and the TGI is above 100 µM.

Take `COc1ccc(-c2coc3c4c(ccc3c2=O)OCO4)cc1OC`: the TGI was above 100 µM.

As for `CC(C)(S)C(N)C(=O)O` (configuration not stated), the GI50 was 1570 µM; the TGI is 4110 µM and > 100 µM.

As for `CN1C(=O)/C(=C/c2c(Cl)n(C)c3ccccc23)c2ccccc21`, the GI50 is 3.31 µM and the TGI was 9.25 µM.

With `Cc1nc(-[n+]2nc(-c3ccncc3)nn2-c2ccccc2)sc1C`, the TGI amounted to 41 µM.

On to `CCOC(=O)/C=C(/C)Sc1cc(O)c2ccccc2c1O`, for which the GI50 was 2.93 µM and the TGI turned out to be 10.5 µM.

In the case of `N=C(N)c1ccc2nc(-c3cc(CC(=O)N[C@@H](CC(=O)O)C(=O)O)cc(-c4cc(S(N)(=O)=O)ccc4O)c3O)[nH]c2c1`, the GI50 is above 100 µM and the TGI is above 100 µM.

On to `COc1ccc(O)c(C(=O)c2ccc(C(=O)N[C@H]3CCCNC[C@@H]3NC(=O)c3ccncc3)cc2)c1F`, for which the GI50 was 1.27 µM and the TGI amounted to 13.7 µM.

With `COc1ccc(-n2c(C)cc(-c3ccccc3)c2C)cc1`, the GI50 is 2.63 µM and the TGI was found to be 9.98 µM.

In the case of `O[C@H](c1cc(C(F)(F)F)nc2c(C(F)(F)F)cccc12)[C@@H]1CCCCN1`, the GI50 was 12.1 µM and the TGI was determined as 25.5 µM.

For `CCCOc1ccc2sc(NC(=O)OC)nc2c1`, the GI50 was 3.81 µM and the TGI was above 100 µM.

In turn, `O=C(O)c1ccc(OCc2ccccc2)c(Cl)c1` registered a TGI above 100 µM.

In the case of `OCCCNc1nccc(-c2c(-c3ccc(F)cc3)nn3cc(C(F)(F)F)ccc23)n1`, the GI50 is above 25 µM and the TGI is above 25 µM.

As to `O=S(=O)(Nc1ccc(F)cc1F)c1ccc(-c2cnc(C3CC3)o2)cc1`, the GI50 was 0.597 µM and the TGI was 24 µM.

For the compound `O=C(CSC1CCc2ccccc21)N/N=C/c1ccccc1O` (configuration not stated), the GI50 is 5.46 µM and the TGI was determined as 34.2 µM.

For a further assay, the system named is COLO 205 colon. Put plainly: inhibition of tumour cell growth, NCI panel, 48 h.
For the compound `NC(=O)c1cc(S(=O)(=O)Nc2nnc(-c3ccccc3)c(-c3ccccc3)n2)c(SCc2ccccc2)cc1Cl`, the GI50 is above 100 µM and the TGI is above 100 µM.

For the compound `Cc1cc(C)c(/C=C2\C(=O)Nc3ccc(NC(=O)CCCCCCC(=O)NO)cc32)[nH]1`, the GI50 was 0.479 µM and the TGI turned out to be 2.32 µM.

With `COc1ccc(-c2coc3c4c(ccc3c2=O)OCO4)cc1OC`, the TGI was above 100 µM.

In the case of `CC(C)(S)C(N)C(=O)O` (configuration not stated), the GI50 is 1180 µM; the TGI was 2880 µM and > 100 µM.

`CN1C(=O)/C(=C/c2c(Cl)n(C)c3ccccc23)c2ccccc21`: the GI50 is 4.59 µM and 0.485 µM; the TGI worked out at 1.63 µM.

Turning to `Cc1nc(-[n+]2nc(-c3ccncc3)nn2-c2ccccc2)sc1C`, the TGI is above 100 µM.

As for `CCOC(=O)/C=C(/C)Sc1cc(O)c2ccccc2c1O`, the GI50 is 7.22 µM and the TGI was 20.7 µM.

Turning to `N=C(N)c1ccc2nc(-c3cc(CC(=O)N[C@@H](CC(=O)O)C(=O)O)cc(-c4cc(S(N)(=O)=O)ccc4O)c3O)[nH]c2c1`, the GI50 is above 100 µM and the TGI is above 100 µM.

With `COc1ccc(O)c(C(=O)c2ccc(C(=O)N[C@H]3CCCNC[C@@H]3NC(=O)c3ccncc3)cc2)c1F`, the GI50 was above 25 µM and the TGI was above 25 µM.

Consider `COc1ccc(-n2c(C)cc(-c3ccccc3)c2C)cc1`, for which the GI50 is 2.42 µM and the TGI stood at 5.95 µM.

For `O[C@H](c1cc(C(F)(F)F)nc2c(C(F)(F)F)cccc12)[C@@H]1CCCCN1`, the GI50 is 1.98 µM and the TGI was 4.27 µM.

As for `CCCOc1ccc2sc(NC(=O)OC)nc2c1`, the GI50 was 0.838 µM and the TGI came out at 13.5 µM.

The compound `O=C(O)c1ccc(OCc2ccccc2)c(Cl)c1` had a TGI above 100 µM.

Take `OCCCNc1nccc(-c2c(-c3ccc(F)cc3)nn3cc(C(F)(F)F)ccc23)n1`: the GI50 was 12.5 µM and the TGI was above 25 µM.

Turning to `O=S(=O)(Nc1ccc(F)cc1F)c1ccc(-c2cnc(C3CC3)o2)cc1`, the GI50 was 0.767 µM and the TGI was found to be 17.1 µM.

With `O=C(CSC1CCc2ccccc21)N/N=C/c1ccccc1O` (configuration not stated), the GI50 was 5.87 µM and the TGI is above 100 µM.

Another assay deals with HL-60(TB) leukemia. Nature of the assay: inhibition of tumour cell growth, NCI panel, 48 h.
Consider `NC(=O)c1cc(S(=O)(=O)Nc2nnc(-c3ccccc3)c(-c3ccccc3)n2)c(SCc2ccccc2)cc1Cl`, for which the GI50 was 23.1 µM and the TGI is 49.6 µM.

For the compound `Cc1cc(C)c(/C=C2\C(=O)Nc3ccc(NC(=O)CCCCCCC(=O)NO)cc32)[nH]1`, the GI50 was 0.506 µM and the TGI is above 100 µM.

In the case of `COc1ccc(-c2coc3c4c(ccc3c2=O)OCO4)cc1OC`, the TGI was above 100 µM.

For the compound `CC(C)(S)C(N)C(=O)O` (configuration not stated), the GI50 is 3640 µM and the TGI is above 5000 µM.

In the case of `CN1C(=O)/C(=C/c2c(Cl)n(C)c3ccccc23)c2ccccc21`, the GI50 was 0.44 µM and the TGI came out at 10.2 µM.

`Cc1nc(-[n+]2nc(-c3ccncc3)nn2-c2ccccc2)sc1C`: the TGI is above 100 µM.

For the compound `CCOC(=O)/C=C(/C)Sc1cc(O)c2ccccc2c1O`, the GI50 is 2.29 µM and the TGI came out at 5.72 µM.

With `N=C(N)c1ccc2nc(-c3cc(CC(=O)N[C@@H](CC(=O)O)C(=O)O)cc(-c4cc(S(N)(=O)=O)ccc4O)c3O)[nH]c2c1`, the GI50 is above 100 µM and the TGI is above 100 µM.

For `COc1ccc(O)c(C(=O)c2ccc(C(=O)N[C@H]3CCCNC[C@@H]3NC(=O)c3ccncc3)cc2)c1F`, the GI50 was above 23.5 µM and the TGI is above 25 µM.

In the case of `COc1ccc(-n2c(C)cc(-c3ccccc3)c2C)cc1`, the GI50 was 2.88 µM and the TGI was 9.92 µM.

Regarding `O[C@H](c1cc(C(F)(F)F)nc2c(C(F)(F)F)cccc12)[C@@H]1CCCCN1`, the GI50 is 2.08 µM and the TGI is 4.51 µM.

Take `CCCOc1ccc2sc(NC(=O)OC)nc2c1`: the GI50 is 0.616 µM and the TGI was 5.24 µM.

For the compound `O=C(O)c1ccc(OCc2ccccc2)c(Cl)c1`, the TGI is above 100 µM.

On to `OCCCNc1nccc(-c2c(-c3ccc(F)cc3)nn3cc(C(F)(F)F)ccc23)n1`, for which the GI50 is above 19.6 µM and the TGI was above 25 µM.

Turning to `O=S(=O)(Nc1ccc(F)cc1F)c1ccc(-c2cnc(C3CC3)o2)cc1`, the GI50 is 0.397 µM and the TGI worked out at 6.39 µM.

For `O=C(CSC1CCc2ccccc21)N/N=C/c1ccccc1O` (configuration not stated), the GI50 is 2.6 µM and the TGI was found to be 8.72 µM.

The next assay relates to HOP-62 NSCLC. Nature of the assay: inhibition of tumour cell growth, NCI panel, 48 h.
Regarding `NC(=O)c1cc(S(=O)(=O)Nc2nnc(-c3ccccc3)c(-c3ccccc3)n2)c(SCc2ccccc2)cc1Cl`, the GI50 is above 100 µM and the TGI was above 100 µM.

Turning to `Cc1cc(C)c(/C=C2\C(=O)Nc3ccc(NC(=O)CCCCCCC(=O)NO)cc32)[nH]1`, the GI50 is 0.485 µM and the TGI came out at 9.83 µM.

In turn, `COc1ccc(-c2coc3c4c(ccc3c2=O)OCO4)cc1OC` gave a TGI above 100 µM.

In the case of `CC(C)(S)C(N)C(=O)O` (configuration not stated), the GI50 was above 5000 µM and the TGI is above 5000 µM.

Turning to `CN1C(=O)/C(=C/c2c(Cl)n(C)c3ccccc23)c2ccccc21`, the GI50 is 2.99 µM and the TGI was determined as 8.96 µM.

`Cc1nc(-[n+]2nc(-c3ccncc3)nn2-c2ccccc2)sc1C`: the TGI amounted to 31.9 µM.

In the case of `CCOC(=O)/C=C(/C)Sc1cc(O)c2ccccc2c1O`, the GI50 was 3.02 µM and the TGI is 12.9 µM.

Turning to `N=C(N)c1ccc2nc(-c3cc(CC(=O)N[C@@H](CC(=O)O)C(=O)O)cc(-c4cc(S(N)(=O)=O)ccc4O)c3O)[nH]c2c1`, the GI50 is above 100 µM and the TGI is above 100 µM.

In the case of `COc1ccc(O)c(C(=O)c2ccc(C(=O)N[C@H]3CCCNC[C@@H]3NC(=O)c3ccncc3)cc2)c1F`, the GI50 is 4.39 µM and the TGI is above 21.1 µM.

For `COc1ccc(-n2c(C)cc(-c3ccccc3)c2C)cc1`, the GI50 is 6.68 µM and the TGI turned out to be 67.8 µM.

For the compound `O[C@H](c1cc(C(F)(F)F)nc2c(C(F)(F)F)cccc12)[C@@H]1CCCCN1`, the GI50 was 4.73 µM and the TGI worked out at 11.8 µM.

On to `CCCOc1ccc2sc(NC(=O)OC)nc2c1`, for which the GI50 is 4.9 µM and the TGI is above 100 µM.

Turning to `O=C(O)c1ccc(OCc2ccccc2)c(Cl)c1`, the TGI was above 100 µM.

Regarding `OCCCNc1nccc(-c2c(-c3ccc(F)cc3)nn3cc(C(F)(F)F)ccc23)n1`, the GI50 was above 23.4 µM and the TGI is above 25 µM.

Take `O=S(=O)(Nc1ccc(F)cc1F)c1ccc(-c2cnc(C3CC3)o2)cc1`: the GI50 was 0.724 µM and the TGI came to 47.6 µM.

Values taken from PubChem BioAssay (NCI).
